This is an account of results in patent publication US7713969B2, “Compositions and methods for treatment of cancer” (ArQule, Inc., priority 2005, dated 2010).

pIC50: −log10 of the molar value.

Experiment [1] deals with MDA-MB-231 human breast cancer xenograft. The experiment can be described thus: MDA-MB-231 xenograft, intraperitoneal 80 mg/kg (Example 82). In kind it is in vivo, mice. The settings on record: 80 mg/kg intraperitoneally, 5 days on/2 off, four cycles, DMA/PEG 400. The protocol: Athymic female nude mice (CRL:NU/NU-nuBR) were injected subcutaneously in the flank with MDA-MB-231 human breast cancer cells (8×10^6 cells/mouse). Prior to injection, MDA-MB-231 cells were cultured in DMEM (Invitrogen #11965-092) supplemented with 10% (v/v) heat inactivated fetal bovine serum (FBS), 1% Hepes buffer solution (Invitrogen #15630-080) and 1% Penicillin/Streptomycin (Invitrogen #15140-122) at 37° C. in 5% CO2. Tumors were allowed to grow to approximately 50 mm^3 in size. Animals were randomized into three groups of eight animals per group. At day four post injection, mice with established tumors were treated intraperitoneally with (±)-Cis-3-(5,6-dihydro-4H-pyrrolo[3,2,1-ij]quinolin-1yl)-4(1H-indol-3-yl)pyrrolidine-2,5-dione (80 mg/kg), (±)-Trans-3-(5,6-dihydro-4H-pyrrolo[3,2,1-ij]quinolin-1-yl)-4(1H-indol-3-yl)pyrrolidine-2,5-dione (80 mg/kg) administered in DMA/PEG 400 (1:4 v/v) as the vehicle at 50 mg/ml, or vehicle control intraperitoneally. […] Tumor size was evaluated periodically during the study. For each subject, tumor volume was calculated using the formula (L×W^2)/2 where L and W were the length and width of the tumor, respectively. The arithmetic mean tumor volume was calculated for each treatment group+/−standard error of the mean (SEM). […]

For experiment [2], the system named is HT-29. Nature of the experiment: Colony formation assay (CFA). The settings on record: Homo sapiens; HT-29, 24 hours exposure, colonies after 14-21 days; read-out: (−)-trans IC50 CFA. In kind it is cell-based. As for the experimental part:
(§1) To determine c-met inhibition, exponentially growing MCF-7 and MDA-MB-231 human breast cancer cells, DLD1 and HT29 human colon cancer cells, PACA2 and PANC-1 human pancreatic cancer cells and NCI-H441 human non-small cell lung cancer cells (H441) were serum starved in 0.5% FBS and treated with increasing amounts of (−)-trans-3-(5,6-dihydro-4H-pyrrolo [3,2,1-ij]quinolin-1-yl)-4(1H-indol-3-yl)pyrrolidine-2,5-dione for 24 hours as indicated. Cells were then left unstimulated or stimulated with 100 ng/mL HGF for 10 minutes and whole cell extracts were prepared. Whole cell lysates (50 μg) were resolved by SDS-PAGE, transferred onto a PVDF membrane, and an enhanced chemiluminescence assay system (ECL) was used to determine the phosphorylation status of c-Met. A polyclonal antibody against phospho (Y1349) c-Met (phospho-c-Met) was obtained from Biosource International and a monoclonal antibody against β-actin was purchased from Invitrogen. Percent inhibition was determined by densitometry using the Scion Image For colony formation assays (CFA), exponentially growing cells were seeded at 2,000 cells per well in 6-well plates and allowed to attach for 24 hours. Increasing concentrations of (−)-trans-3-(5,6-dihydro-4H-pyrrolo[3,2,1-ij]quinolin-1-yl)-4(1H-indol-3-yl)pyrrolidine-2,5-dione (from 0.01 to 30 μM) were then added to the media for another 24 hours. After 24 hours exposure, the drug was removed and fresh media was added for the next 14-21 days, allowing for colony formation. Cells were fixed and stained with GEMSA (Gibco BRL). Colonies of greater than 50 cells were scored as survivors and percentage of cell survival was plotted to determine the IC50. […] The IC50 of (−)-trans-3-(5,6-dihydro-4H-pyrrolo[3,2,1-ij]quinolin-1-yl)-4(1H-indol-3-yl) pyrrolidine-2,5-dione for c-Met expressing solid tumor types is in the 0.1-0.7 μM range following exposure to (−)-trans-3-(5,6-dihydro-4H-pyrrolo[3,2,1-ij]quinolin-1-yl)-4(1H-indol-3-yl)pyrrolidine-2,5-dione for 24 hours, as determined by colony formation assay (CFA).

The subject of experiment [3] is MDA-MB-231. The experiment can be described thus: Colony formation assay (CFA). The settings on record: Homo sapiens; MDA-MB-231, 24 hours exposure, colonies after 14-21 days; read-out: (−)-trans IC50 CFA. In kind it is cell-based. The protocol: as §1
Experiment [4] deals with DLD-1. The experiment can be described thus: Colony formation assay (CFA). The settings on record: Homo sapiens; DLD-1, 24 hours exposure, colonies after 14-21 days; read-out: (−)-trans IC50 CFA. In kind it is cell-based. As for the experimental part:
as §1

Experiment [5] deals with H661. Nature of the experiment: Colony formation assay (CFA). The settings on record: Homo sapiens, NCI-H661; H661, 24 hours exposure, colonies after 14-21 days; read-out: (−)-trans IC50 CFA. In kind it is cell-based. The protocol: as §1
In experiment [6] the test system is PACA2. The experiment can be described thus: Colony formation assay (CFA). It is filed as cell-based. The settings on record: Homo sapiens, PaCa-2; PACA2, 24 hours exposure, colonies after 14-21 days; read-out: (−)-trans IC50 CFA. As for the experimental part: as §1
The subject of experiment [7] is NCI-H69. The experiment can be described thus: Cell viability MTS assay. It is filed as cell-based, human. The settings on record: Homo sapiens, NCI-H69, 72 hours with compound. In short, it runs like this:
(§2)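 Cells seeded 16-24 h, then exposed to serially diluted compound for 72 h (0.33% DMSO final) at 37° C, 5% CO2. Viability read by MTS/PMS reduction over 4 h, absorbance at 490 nm. IC50 is the concentration giving 50% fewer viable cells than DMSO controls, by non-linear regression.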

Experiment [8] relates to NCI-H446. Nature of the experiment: Cell viability MTS assay. It is filed as cell-based, human. The settings on record: Homo sapiens, NCI-H446, 72 hours with compound. The procedure, abridged: as §2
The subject of experiment [9] is NCI-H82. Nature of the experiment: Cell viability MTS assay. In kind it is cell-based, human. The settings on record: Homo sapiens, NCI-H82, 72 hours with compound. In short, it runs like this: as §2

`O=C1NC(=O)[C@@H](c2cn3c4c(cccc24)CCC3)[C@@H]1c1c[nH]c2ccccc12` (racemic) [(±)-Trans-3-(5,6-dihydro-4H-pyrrolo[3,2,1-ij]quinolin-1-yl)-4(1H-indol-3-yl)pyrrolidine-2,5-dione]: the “reduction of mean tumor volume compared to vehicle treated control” value in experiment [1] is on record as 69.4%.
On to `O=C1NC(=O)C(c2cn3c4c(cccc24)CCC3)C1c1c[nH]c2ccccc12` (single isomer, unassigned; (-)), for which the negative-log IC50 (pIC50) in [2] was 6.70; in experiment [3] it was 6.52; in experiment [4], 6.15; in experiment [5], 5.30; in experiment [6], 6.52; in experiment [7], 5.98. Besides, the pIC50 in [8] was 6.24; in experiment [9], 6.08.
